According to ChEMBL document CHEMBL4043146, “Macrocyclic factor XIa inhibitors” (Bioorg Med Chem Lett, 2017):

What was measured:
Plasma = test: Anticoagulant activity in human plasma assessed as concentration required to produce 50% increase in activated partial thromboplastin time relative to baseline control; assay type: functional
Coagulation factor XI = Coagulation factor XI (Homo sapiens, UniProt P03951); test: Inhibition of human F11a using peptide substrate by spectrophotometry
[1] = Binding affinity to trypsin (unknown origin); design: species or system Homo sapiens
Coagulation factor VII = molecular target: T1, Coagulation factor VII (Homo sapiens, UniProt P08709); test: Binding affinity to F7a (unknown origin)
T1 sequence (P08709 whole entry): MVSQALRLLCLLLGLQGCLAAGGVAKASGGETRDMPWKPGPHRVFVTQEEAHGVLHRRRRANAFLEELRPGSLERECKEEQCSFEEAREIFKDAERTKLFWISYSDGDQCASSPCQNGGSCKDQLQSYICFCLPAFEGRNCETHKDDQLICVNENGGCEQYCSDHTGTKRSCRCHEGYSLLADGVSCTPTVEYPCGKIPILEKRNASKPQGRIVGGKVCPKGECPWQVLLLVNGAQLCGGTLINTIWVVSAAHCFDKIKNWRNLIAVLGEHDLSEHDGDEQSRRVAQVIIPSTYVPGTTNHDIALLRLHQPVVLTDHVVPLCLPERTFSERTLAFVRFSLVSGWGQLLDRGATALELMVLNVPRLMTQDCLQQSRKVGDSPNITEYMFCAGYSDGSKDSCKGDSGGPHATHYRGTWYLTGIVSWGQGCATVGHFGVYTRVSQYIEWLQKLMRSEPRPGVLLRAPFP

Prothrombin = Prothrombin (Homo sapiens, UniProt P00734); test: Binding affinity to F2a (unknown origin)
Coagulation factor X = Coagulation factor X (Homo sapiens, UniProt P00742); test: Binding affinity to F10a (unknown origin)
Chain of Coagulation factor X (P00742 41-179 limits assumed): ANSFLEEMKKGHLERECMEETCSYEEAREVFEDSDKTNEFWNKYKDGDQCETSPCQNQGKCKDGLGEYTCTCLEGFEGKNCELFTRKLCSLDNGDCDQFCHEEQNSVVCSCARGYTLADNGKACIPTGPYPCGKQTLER
Chain of Coagulation factor X (P00742 235-488 limits assumed): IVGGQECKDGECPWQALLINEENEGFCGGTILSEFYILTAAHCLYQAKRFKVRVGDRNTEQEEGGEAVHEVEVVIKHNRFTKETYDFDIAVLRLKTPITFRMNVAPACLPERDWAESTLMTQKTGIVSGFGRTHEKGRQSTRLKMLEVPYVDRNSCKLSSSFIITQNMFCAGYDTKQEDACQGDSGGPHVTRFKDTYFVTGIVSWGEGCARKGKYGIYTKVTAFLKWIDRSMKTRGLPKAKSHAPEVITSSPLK

Chain of Coagulation factor XI (P03951 19-387 limits assumed): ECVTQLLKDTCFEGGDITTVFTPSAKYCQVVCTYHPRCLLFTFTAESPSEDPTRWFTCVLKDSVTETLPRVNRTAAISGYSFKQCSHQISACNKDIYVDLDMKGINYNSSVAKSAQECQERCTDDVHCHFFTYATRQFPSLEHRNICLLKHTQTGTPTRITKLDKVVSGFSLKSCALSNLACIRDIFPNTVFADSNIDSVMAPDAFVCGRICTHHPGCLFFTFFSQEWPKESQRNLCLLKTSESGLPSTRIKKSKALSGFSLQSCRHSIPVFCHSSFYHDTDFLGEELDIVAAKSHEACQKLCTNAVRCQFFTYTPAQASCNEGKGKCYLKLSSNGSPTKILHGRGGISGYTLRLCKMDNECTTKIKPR
Chain of Coagulation factor XI (P03951 388-625 limits assumed): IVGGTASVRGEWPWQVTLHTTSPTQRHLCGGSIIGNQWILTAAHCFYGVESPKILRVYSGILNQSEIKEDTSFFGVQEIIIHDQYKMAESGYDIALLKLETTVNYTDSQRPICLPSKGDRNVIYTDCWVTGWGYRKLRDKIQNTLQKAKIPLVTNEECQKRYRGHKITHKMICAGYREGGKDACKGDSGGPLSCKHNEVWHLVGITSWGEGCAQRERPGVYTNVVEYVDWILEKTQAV

SMILES | Activity (Plasma) [µM] | Ki (Coagulation factor XI) [nM] | other results
COC(=O)Nc1ccc2c(c1)CCCCc1cccc(c1)C[C@H](NC(=O)/C=C/c1cc(Cl)ccc1-n1cnnn1)c1nc-2c(Cl)[nH]1 | 34 |  | 
COC(=O)Nc1ccc2c(c1)NC(=O)CCc1cccc(n1)C[C@H](NC(=O)/C=C/c1cc(Cl)ccc1-n1cnnn1)c1nc-2c[nH]1 | 0.27 to 0.4 | 0.32 | 
COC(=O)Nc1ccc2c(c1)CNC(=O)c1cccc(c1)C[C@H](NC(=O)/C=C/c1cc(Cl)ccc1-n1cnnn1)c1nc-2c[nH]1 |  | 500 | 
COC(=O)Nc1ccc2c(c1)NC(=O)CCc1cc(ccc1F)C[C@H](NC(=O)/C=C/c1cc(Cl)ccc1-n1cnnn1)c1nc-2c[nH]1 | 1.4 | 0.53 | 
COC(=O)Nc1ccc2c(c1)CNC(=O)c1ccc(cc1)C[C@H](NC(=O)/C=C/c1cc(Cl)ccc1-n1cnnn1)c1nc-2c[nH]1 |  | 6400 | 
COC(=O)Nc1ccc2c(c1)NC(=O)CCc1cccc(c1)C[C@H](NC(=O)/C=C/c1cc(Cl)ccc1-n1cnnn1)c1nc-2c[nH]1 | 2.1 | 1.5 | 
COC(=O)Nc1ccc2c(c1)NC(=O)CCc1nc(ccc1F)C[C@H](NC(=O)/C=C/c1cc(Cl)ccc1-n1cnnn1)c1nc-2c[nH]1 | 0.27 | 0.02 | Ki [1]: 670 nM; Ki (Coagulation factor VII): 1100 nM; Ki (Prothrombin): > 13000 nM; Ki (Coagulation factor X): 1400 nM
COC(=O)Nc1ccc2c(c1)CNC(=O)c1cccc(c1)C[C@H](NC(=O)/C=C/c1cc(Cl)ccc1-n1cnnn1)c1nc-2c(Cl)[nH]1 |  | 92 | 
COC(=O)Nc1ccc2c(c1)CCCCc1cccc(c1)C[C@H](NC(=O)/C=C/c1cc(Cl)ccc1-n1cnnn1)c1nc-2c[nH]1 | 23 | 17 | 
